Assay results from ChEMBL document CHEMBL1201862, “PubChem BioAssay data set” (2004).
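Each compound was tested at five concentrations against cells in 96-well plates for 48 hours. GI50: concentration for 50% inhibition of growth.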 Activity calls are given as the source filed them. Cut-off read from the data, not from the text of the source: active = GI50 up to about 1.1 µM and inactive = higher.

Columns and labels:
Experiment in all cases: growth of human tumour cells (NCI), 48 h
UO-31 = tested on: UO-31
SN12C = tested on: SN12C
CCRF-CEM = tested on: CCRF-CEM
OVCAR-4 = tested on: OVCAR-4
KM12 = tested on: KM12
HCC 2998 = tested on: HCC 2998
SF-295 = tested on: SF-295
EKVX = tested on: EKVX
HCT-116 = tested on: HCT-116
HT-29 = tested on: HT-29
786-0 = tested on: 786-0
NCI-H460 = tested on: NCI-H460
CAKI-1 = tested on: CAKI-1
IGROV-1 = tested on: IGROV-1
OVCAR-3 = tested on: OVCAR-3
UACC-62 = tested on: UACC-62
SNB-19 = tested on: SNB-19
SNB-75 = tested on: SNB-75
U-251 = tested on: U-251
NCI-H522 = tested on: NCI-H522
HL-60 = tested on: HL-60
M14 = tested on: M14
HOP-62 = tested on: HOP-62
SK-MEL-28 = tested on: SK-MEL-28
LOX IMVI = tested on: LOX IMVI
COLO 205 = tested on: COLO 205
RPMI-8226 = tested on: RPMI-8226
SF-268 = tested on: SF-268
SR = tested on: SR
OVCAR-5 = tested on: OVCAR-5
UACC-257 = tested on: UACC-257
ACHN = tested on: ACHN
OVCAR-8 = tested on: OVCAR-8
HCT-15 = tested on: HCT-15
SW-620 = tested on: SW-620
NCI-H226 = tested on: NCI-H226
DMS-273 = tested on: DMS-273
SK-MEL-2 = tested on: SK-MEL-2
RXF 393 = tested on: RXF 393
SF-539 = tested on: SF-539
MOLT-4 = tested on: MOLT-4
TK-10 = tested on: TK-10
SNB-78 = tested on: SNB-78
A549 = tested on: A549
NCI-H23 = tested on: NCI-H23
LXFL 529 = tested on: LXFL 529
A498 = tested on: A498
K562 = tested on: K562
KM-20L2 = tested on: KM-20L2
DMS-114 = tested on: DMS-114
Malme-3M = tested on: Malme-3M
DLD-1 = tested on: DLD-1
SK-OV-3 = tested on: SK-OV-3
SK-MEL-5 = tested on: SK-MEL-5
HOP-92 = tested on: HOP-92
XF498 = tested on: XF498
M19-MEL = tested on: M19-MEL
HOP-18 = tested on: HOP-18

O=C(Nc1ccc(/N=N/c2ccccc2)cc1)Sc1ccccc1C(=O)O
GI50 (UO-31): > 100 µM (inactive)
GI50 (SN12C): > 100 µM (inactive)
GI50 (CCRF-CEM): > 10 µM (inactive)
GI50 (OVCAR-4): > 100 µM (inactive)
GI50 (KM12): > 100 µM (inactive)
GI50 (HCC 2998): > 100 µM (inactive)
GI50 (SF-295): > 100 µM (inactive)
GI50 (EKVX): > 100 µM (inactive)
GI50 (HCT-116): 57.1 µM (inactive)
GI50 (HT-29): > 100 µM (inactive)
GI50 (786-0): > 100 µM (inactive)
GI50 (NCI-H460): > 100 µM (inactive)
GI50 (CAKI-1): > 100 µM (inactive)
GI50 (IGROV-1): 0.7 µM (active)
GI50 (OVCAR-3): > 100 µM (inactive)
GI50 (UACC-62): > 100 µM (inactive)
GI50 (SNB-19): > 100 µM (inactive)
GI50 (SNB-75): > 100 µM (inactive)
GI50 (U-251): > 100 µM (inactive)
GI50 (NCI-H522): > 100 µM (inactive)
GI50 (HL-60): 1.7 µM (inactive)
GI50 (M14): > 100 µM (inactive)
GI50 (HOP-62): > 100 µM (inactive)
GI50 (SK-MEL-28): > 100 µM (inactive)
GI50 (LOX IMVI): > 100 µM (inactive)
GI50 (COLO 205): > 100 µM (inactive)
GI50 (RPMI-8226): > 100 µM (inactive)
GI50 (SF-268): > 100 µM (inactive)
GI50 (SR): > 100 µM (inactive)
GI50 (OVCAR-5): > 100 µM (inactive)
GI50 (UACC-257): > 100 µM (inactive)
GI50 (ACHN): > 100 µM (inactive)
GI50 (OVCAR-8): > 100 µM (inactive)
GI50 (HCT-15): > 100 µM
GI50 (SW-620): > 100 µM (inactive)
GI50 (NCI-H226): > 100 µM (inactive)
GI50 (DMS-273): > 100 µM (inactive)
GI50 (SK-MEL-2): > 100 µM (inactive)
GI50 (RXF 393): 71.3 µM (inactive)
GI50 (SF-539): > 100 µM (inactive)
GI50 (MOLT-4): > 100 µM (inactive)
GI50 (TK-10): > 100 µM (inactive)
GI50 (SNB-78): > 100 µM (inactive)
GI50 (A549): > 100 µM (inactive)
GI50 (NCI-H23): > 100 µM (inactive)
GI50 (LXFL 529): > 100 µM (inactive)
GI50 (A498): > 100 µM (inactive)
GI50 (K562): > 100 µM (inactive)
GI50 (KM-20L2): > 100 µM (inactive)

CC(C)OP(=O)(OC(C)C)c1nc(-c2ccccc2)n(-c2ccc([N+](=O)[O-])cc2)n1
GI50 (UO-31): > 100 µM (inactive)
GI50 (SN12C): > 100 µM (inactive)
GI50 (CCRF-CEM): > 100 µM (inactive)
GI50 (OVCAR-4): > 100 µM (inactive)
GI50 (DMS-114): > 100 µM (inactive)
GI50 (KM12): > 100 µM (inactive)
GI50 (Malme-3M): > 100 µM (inactive)
GI50 (HCC 2998): > 100 µM (inactive)
GI50 (SF-295): > 100 µM (inactive)
GI50 (EKVX): > 100 µM (inactive)
GI50 (HCT-116): > 100 µM (inactive)
GI50 (HT-29): > 100 µM (inactive)
GI50 (NCI-H460): > 100 µM (inactive)
GI50 (CAKI-1): > 100 µM (inactive)
GI50 (IGROV-1): > 100 µM (inactive)
GI50 (OVCAR-3): > 100 µM (inactive)
GI50 (UACC-62): > 100 µM (inactive)
GI50 (SNB-19): > 100 µM (inactive)
GI50 (SNB-75): > 100 µM (inactive)
GI50 (U-251): > 100 µM (inactive)
GI50 (NCI-H522): 98.9 µM (inactive)
GI50 (HL-60): > 100 µM (inactive)
GI50 (M14): > 100 µM (inactive)
GI50 (HOP-62): > 100 µM (inactive)
GI50 (SK-MEL-28): > 100 µM (inactive)
GI50 (COLO 205): > 100 µM (inactive)
GI50 (RPMI-8226): > 100 µM (inactive)
GI50 (SF-268): > 100 µM (inactive)
GI50 (OVCAR-5): > 100 µM (inactive)
GI50 (UACC-257): > 100 µM (inactive)
GI50 (DLD-1): > 100 µM (inactive)
GI50 (SK-OV-3): > 100 µM (inactive)
GI50 (ACHN): > 100 µM (inactive)
GI50 (OVCAR-8): > 100 µM (inactive)
GI50 (HCT-15): > 100 µM
GI50 (SK-MEL-5): > 100 µM (inactive)
GI50 (SW-620): > 100 µM (inactive)
GI50 (HOP-92): > 100 µM (inactive)
GI50 (NCI-H226): 31.3 µM (inactive)
GI50 (DMS-273): > 100 µM (inactive)
GI50 (SK-MEL-2): 50.8 µM (inactive)
GI50 (RXF 393): 0.0111 µM (active)
GI50 (SF-539): > 100 µM (inactive)
GI50 (XF498): > 100 µM (inactive)
GI50 (M19-MEL): > 100 µM (inactive)
GI50 (MOLT-4): > 100 µM (inactive)
GI50 (TK-10): > 100 µM (inactive)
GI50 (A549): > 100 µM (inactive)
GI50 (NCI-H23): > 100 µM (inactive)
GI50 (LXFL 529): > 100 µM (inactive)
GI50 (A498): > 100 µM (inactive)
GI50 (K562): 85.5 µM (inactive)
GI50 (KM-20L2): > 100 µM (inactive)

CC1=C[P+](Cc2ccccc2)(c2ccccc2)CC1 (stereo unspecified)
GI50 (UO-31): > 100 µM (inactive)
GI50 (CCRF-CEM): > 100 µM (inactive)
GI50 (DMS-114): 46.9 µM (inactive)
GI50 (KM12): > 100 µM (inactive)
GI50 (EKVX): 54.6 µM (inactive)
GI50 (HCT-116): > 100 µM (inactive)
GI50 (HT-29): 66.4 µM (inactive)
GI50 (IGROV-1): 81.1 µM (inactive)
GI50 (OVCAR-3): 44.3 µM (inactive)
GI50 (UACC-62): 63.7 µM (inactive)
GI50 (SNB-19): > 100 µM (inactive)
GI50 (NCI-H522): 41.7 µM (inactive)
GI50 (HL-60): 34 µM (inactive)
GI50 (HOP-62): > 100 µM (inactive)
GI50 (LOX IMVI): 90.4 µM (inactive)
GI50 (COLO 205): 31.6 µM (inactive)
GI50 (HOP-18): > 100 µM (inactive)
GI50 (RPMI-8226): 25.7 µM (inactive)
GI50 (UACC-257): 41.9 µM (inactive)
GI50 (SK-MEL-5): 21.5 µM (inactive)
GI50 (SW-620): > 100 µM (inactive)
GI50 (NCI-H226): > 100 µM (inactive)
GI50 (DMS-273): 78 µM (inactive)
GI50 (SK-MEL-2): > 100 µM (inactive)
GI50 (SF-539): > 100 µM (inactive)
GI50 (M19-MEL): 46.8 µM (inactive)
GI50 (LXFL 529): 45.4 µM (inactive)
GI50 (A498): > 100 µM (inactive)
GI50 (KM-20L2): 75.2 µM (inactive)
